Assay results published in patent US11118109B2, “Organic luminogens” (THE HONG KONG UNIVERSITY OF SCIENCE AND TECHNOLOGY, priority 2017, dated 2021).

Key:
LogP (Table 1) = type: physicochemical
HeLa cells = experiment: Cell imaging of living HeLa cells by confocal microscopy, co-staining with MitoTracker Green FM and NucRed Live; type: cell-based; conditions: incubation 60 min at 37° C.
Method: For cell culturing, HeLa cells were cultured in MEM containing 10% FBS and antibiotics (100 units/mL penicillin and 100 µg/mL streptomycin) in a 5% CO2 humidity incubator at 37° C. All culture mediums supplemented with 10% heat-inactivated FBS, 100 units/mL penicillin and 100 µg/mL streptomycin. Before experiment, the cells were precultured until confluence was reached.
For cell imaging, HeLa cells were grown overnight on a 35 mm petri dish with a cover slip at 37° C. After the removal of the medium, the adherent cells were washed twice with 1× phosphate buffered saline (PBS) buffer. 4MOTPO were then added to the chamber. After incubation for 1 h, then washed and incubated with MitoTracker® Green FM and NucRed® Live for 10 min, followed by further washing three times with 1×PBS buffer. The cells were imaged on Zeiss laser scanning confocal microscope and analyzed using ZEN 2009 software.
4MOTPO was tested in living HeLa cells to test the efficacy of the compound as a biosensor for bioimaging. Cells were incubated with 4MOTPO for 60 min at 37° C. and then washed and incubated with MitoTracker® Green FM and NucRed® Live for 10 min, followed by further washing.

Row | Structure (SMILES) | logP (LogP (Table 1)) | subcellular localisation versus MitoTracker Green FM and NucRed Live (HeLa cells; co-staining 10 min) | fluorescence observed in cells (intracellular distribution) (HeLa cells; confocal microscopy)
1 | COc1ccc(-[n+]2c(-c3ccccc3)oc(-c3ccccc3)c2-c2ccccc2)cc1 [1MOTPO] | 1.02 |  | 
2 | COc1ccc(-c2oc(-c3ccccc3)[n+](-c3ccc(OC)cc3)c2-c2ccc(OC)cc2)cc1 [3MOTPO] | 1.29 |  | 
3 | COc1ccc(-c2oc(-c3ccc(OC)cc3)[n+](-c3ccc(OC)cc3)c2-c2ccc(OC)cc2)cc1 [4MOTPO] | 1.35 | can accumulate in mitochondria | intense blue fluorescence was observed in the cellular cytoplasms
